Results taken from patent publication US20030231978A1, “Indoor air quality and antiseptic composition for use therein” (priority 2002, published 2003).
Entries after “also recorded” stand apart in the source; their conditions may differ. Like-named read-outs stand apart in the source and are kept apart here.

Experiments:
[1] = Solution and suspension levels of terpenes in water
From the text: The terpene and water were blended in a household blender for 30 seconds.
Examples of these levels are as follows.

E. coli = conditions: cited from earlier work
[2] = Potency decay / breakdown of terpenes in presence of oxygen; assay type: physicochemical; conditions: 500 ppm solution
From the text: Terpenes will break down in the presence of oxygen. Citral, for example, is an aldehyde and will decay (oxygenate) over a period of days.

H. pylori = conditions: cited from earlier work
[3] = system: Third stage (L3) Dirofilaria immitis larvae; assay: In-vitro larvacidal effect; assay type: cell-based
Description: Third stage (L3) Dirofilaria immitis larvae were suspended at a concentration of 85 larvae/ml. Larvae were deposited on plates with wells containing b-ionone at a concentration of 5 μM, 50 μM, and 750 μM, Tween® 80, and control media.
Plates were incubated at 37° C., 95% relative humidity (RH), and 5% CO2 for 6 days.
After incubation all wells were evaluated for appearance, motility, and molting to stage four (L4) at 24, 48, 72 hours, and 6 days.

Mycoplasma pneumoniae = assay: Effectiveness against Mycoplasma pneumoniae (color change of SP4 medium); assay type: cell-based; conditions: 40 hours treatment
Description: Terpene beta-ionone or L-carvone was first mixed well with Tween® 80 to have a final Tween® 80 concentration of 5 vol %. This mixture was then used to make concentrations of 2500 ppm in sterile phosphate buffer saline (PBS) by blending the mixture in PBS for 40 seconds. This 2500 ppm solution was then diluted to 500 ppm, 250 ppm, and 125 ppm with PBS.
PBS containing 25 ppm Tween® 80 or PBS alone was used to treat cells suspension as controls.
A log phase (2-3 -day old) culture of Mycoplasma pneumoniae was mixed with each of the above three concentrations of terpene at 1:1 (volume) ratio (in this case, I mL of cell suspension was added to 1 mL of terpene).
The culture and terpene mixture was then incubated at 37° C. for 40 hours. After 40 hours of treatment, 10-fold serial dilution was performed to 10 (−10) by first taking 0.1 mL of the treated culture suspension was added into 0.9 mL of fresh SP4 (Whitcomb (1983); SP4 media is commercially available (Remel, Lenexa, Kans., USA)). All the tubes were then incubated at 37° C., and a color change of the medium was used for the indication of the cells that either were killed or survived from the treatment. Color change was from red to yellow because Mycoplasma pneumoniae produces acid during its growth.
All the treatments were performed in duplicate.

[4] = in water without surfactant, high-shear blending

## C=C(C)C1CC=C(C)C(=O)C1 (stereo not shown) [Carvone]
[1]; [4]
  Solution levels for various terpenes (maximum level solubilized): 500 ppm

## CC(C)=CCCC(C)=CC=O [Citral, 3,7-dimethyl-2,6-octadien-1-al]
E. coli
  Citral in growth media that reduced the concentration of E. coli: more than 0.01%
  Citral in growth media with bactericidal effect: 0.08%
[2]
  Time to lose half its potency: 2-3 weeks
Human erythrocytes
  Concentration that will lyse human erythrocytes: about 1000 ppm
[1]
  Level up to which a stable suspension of citral can be formed: up to 2500 ppm
[1]; true solution, high shear mixing, no surfactant
  Level up to which citral forms a solution in water: up to 1000 ppm

## CC(C)=CCC/C(C)=C/CO [Geraniol]
H. pylori
  Concentration that inhibited the growth of H. pylori in vitro: 2 mg/L
[1]
  Solution levels for various terpenes (maximum level solubilized): 500 ppm

## CC(=O)/C=C/C1=C(C)CCCC1(C)C [b-ionone]
[3]; 5 μM
  Survival, motility and molting of larvae: no effect on the larvae
[3]; 50 μM, 6 day assay
  Survival, motility and molting of larvae: decreased survivability, motility, and molting; also recorded: Most larvae were dead by 6 days and none molted
[3]; 750 μM
  Survival, motility and molting of larvae: all larvae were dead or moribund within 24 hours
Mycoplasma pneumoniae; 62.5 ppm, 125 ppm and 250 ppm
  Color change of the first tube three days after the 10-fold dilution (killing effect): did not change color at all indicating a killing effect
Mycoplasma pneumoniae; 62.5 ppm
  Color change of tubes 6 days after the 10-fold dilution: only the first tube of 62.5 ppm beta-ionone changed color
Mycoplasma pneumoniae; 125 and 250 ppm
  Killing of cells, 6 days after the 10-fold dilution: may have completely killed all cells in 40 hours
[1]; [4]
  Solution levels for various terpenes (maximum level solubilized): 500 ppm

## L-carvone
Mycoplasma pneumoniae; 62.5 ppm, 125 ppm and 250 ppm
  Color change of the first tube three days after the 10-fold dilution (killing effect): no killing effects
  Color change of the second and third tube 6 days after the 10-fold dilution: changed color

## Terpeniol
[1]; [4]
  Solution levels for various terpenes (maximum level solubilized): 500 ppm
